Data set [1] is described as follows: Equilibrium solubility, saturation shake-flask method. The data set is classed as physicochemical. The following applies: 37 °C, thermodynamic from solid, mean ± SD (n=3). As to the method: The solubility of diclofenac free acid, sodium and potassium was comparatively evaluated in media reflecting the oral way of administration, as e.g. with different pH values. The equilibrium solubility was determined using the saturation shake-flask method. Briefly, an excess amount of drug was added into the different media maintained at 37±0.5° C. and shaken for at least 24 hours. After equilibrium was reached, the excess of solid was removed and the diclofenac concentration in the supernatant solutions was determined by HPLC.

Data set [2] in a line: Agglomerate formation at pH 1.1 (such as gastric fluid). It is filed as physicochemical.

Molecules are shown by their SMILES. Values after ≈ are worked out from the molar mass of the structure shown.

On to `O=C(O)Cc1ccccc1Nc1c(Cl)cccc1Cl` [Diclofenac acid, 2-[(2,6-Dichlorophenyl)amino]benzeneacetic acid], for which the solubility in data set [1] (0.1N HCl, pH 1.1, simulated gastric fluid, 0.1N HCl pH 1.1) was 2.49 ± 0.15 µg/mL (≈ 8.41 µM); in data set [1] (simulated gastric fluid, pH 1.6, simulated gastric fluid, Simulated gastric fluid pH 1.6) it was 1.72 ± 0.01 µg/mL (≈ 5.81 µM). Moreover, the formation of agglomerates result in data set [2] is “not diclofenac acid form agglomerates”.

Consider `O=C(O)Cc1ccccc1Nc1c(Cl)cccc1Cl` [Diclofenac potassium], for which the formation of agglomerates result in data set [2] is given as “form agglomerates”.

With `O=C(O)Cc1ccccc1Nc1c(Cl)cccc1Cl` [Diclofenac sodium], in data set [2], the formation of agglomerates entry was “form agglomerates”.

(Values after patent US11957792B2, “Taste-masked pharmaceutical compositions containing diclofenac” (GLATT AG, priority 2012, dated 2024).)
